“And” between values parts separate entries of the source, which are not always exact repeats. Identical values can stand only once. Like-named read-outs stand apart in the source and are kept apart here.
Key:
plasma glucose levels = details: compared with Metformin (250 mg/kg); cited from earlier work
human liver FBPase = human liver FBPase (Homo sapiens (Human), UniProt P09467); test: FBPase activity, enzyme-coupled spectrophotometric assay; format: biochemical; details: for IC50: human liver FBPase; for inhibition of human liver FBPase relative to AMP: compared with AMP, the natural allosteric inhibitor
Chain of human liver FBPase (P09467 2-338): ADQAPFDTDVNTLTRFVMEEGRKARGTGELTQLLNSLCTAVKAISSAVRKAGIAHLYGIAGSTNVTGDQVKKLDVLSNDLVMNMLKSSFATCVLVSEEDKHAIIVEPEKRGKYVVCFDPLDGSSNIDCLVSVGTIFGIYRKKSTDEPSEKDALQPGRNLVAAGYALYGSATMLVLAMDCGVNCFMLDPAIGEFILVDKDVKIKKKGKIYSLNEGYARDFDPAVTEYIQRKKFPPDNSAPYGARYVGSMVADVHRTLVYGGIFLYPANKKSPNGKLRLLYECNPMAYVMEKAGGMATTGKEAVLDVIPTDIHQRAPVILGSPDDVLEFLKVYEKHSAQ
Procedure: Compounds 3 and 4 (see Scheme 1) were synthesized and tested to determine if they could inhibit either pig kidney or human liver FBPase. The test were performed using an enzyme-coupled assay^17 with AMP as a control.
(§1) FBPase activity was measured spectrophotometrically by employing the coupling enzymes phosphoglucose isomerase and glucose-6-phosphate dehydrogenase.^17 The reduction of NADP+ to NADPH was monitored directly at 340 nm. Specifically, buffer (0.2 M Tris, 4 mM MgCl2, 4 mM (NH4)2SO4, 0.1 EDTA, pH 7.5), 0.2 mM of NADP+, 1.4 units of phosphoglucose isomerase and 0.5 units of glucose-6-phosphate dehydrogenase, 0-300M of inhibitor and 9 ng of FBPase, were mixed in a cuvette and equilibrated at 30° C. 70M of FBP was then added to initiate the reaction. Absdata were collected as a function of time using a JASCO V-630 spectrophotometer.
(§2) After a lag phase, due to coupling, a straight line was fitted to the progress curve and the slope value was recorded asAbs340 per min. The amount of NADPH produced per minute was calculated using the 340 nm millimolar extinction coefficient of 6.22. At each inhibitor concentration, reactions were performed in duplicate. Inhibition curves were obtained for each compound by plotting the relative activity versus inhibitor concentration.

pig kidney FBPase = pig kidney FBPase (Sus scrofa, UniProt P00636); test: as above; format: biochemical; details: for inhibition of pig kidney FBPase relative to AMP: compared with AMP, the natural allosteric inhibitor; for IC50: pig kidney FBPase
Chain of pig kidney FBPase (P00636 2-338 limits assumed): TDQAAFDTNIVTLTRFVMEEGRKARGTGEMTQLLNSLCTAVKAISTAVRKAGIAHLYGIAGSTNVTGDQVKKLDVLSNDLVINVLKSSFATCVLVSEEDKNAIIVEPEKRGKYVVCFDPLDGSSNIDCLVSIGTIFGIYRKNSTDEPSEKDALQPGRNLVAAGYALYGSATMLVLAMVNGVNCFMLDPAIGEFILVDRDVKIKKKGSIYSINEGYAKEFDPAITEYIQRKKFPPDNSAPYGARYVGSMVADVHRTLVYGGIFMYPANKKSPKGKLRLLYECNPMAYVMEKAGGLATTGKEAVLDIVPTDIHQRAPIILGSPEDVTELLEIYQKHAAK
Procedure: The test were performed using an enzyme-coupled assay^17 with AMP as a control.
as §1, §2

[1] = Solubility (remark in competition experiment); format: physicochemical
[2] = test system: allosteric site of FBPase; test: TNP-AMP fluorescence competition experiment; format: binding; details: TNP-AMP at 0.5 times its Kd
Procedure: Fluorescence data were collected using a JASCO FP-6300 spectro-fluorometer. Excitation and emission wavelengths of 410 and 535 nm respectively were used for TNPAMP (Molecular Probes). 0.15 mg of the respective FBPases, 0.08 mM MgCl and 20M fructose 1, 6-2 bisphosphate in 50 mM Tris-acetate buffer, pH 7.5, was added to a 2 mL cuvette and stirred. 3.5 M of TNP-AMP was added to the cuvette and the emission data was obtained Microliter volumes of 3 were subsequently added to the cuvette and resultant emission data was obtained after each addition. The final concentration of 3 in the enzyme solution was 6M.

[3] = read-out: FBPase, IC50 Human Liver

Row | inhibition of human liver FBPase relative to AMP (human liver FBPase) | IC50 (human liver FBPase; [3]) | inhibition of pig kidney FBPase relative to AMP (pig kidney FBPase) | IC50 (pig kidney FBPase) | solubility [1] | Compound | lowering of plasma glucose levels (plasma glucose levels) | IC50 (human liver FBPase; read-out: IC50 human liver FBPase) | TNP-AMP fluorescence on addition of increasing concentrations of compound [2]
1 |  |  |  |  |  | C=C(C)C(O)Cc1c(O)c(C(=O)C(C)CC)c(O)c2c1oc1c(C(=O)C(C)CC)c(O)c(CC=C(C)C)c(O)c12 (stereo not shown) [Compound 1, achyrofuran] | better than that of Metformin |  | 
2 |  |  |  |  |  | CC(=O)C1=C(O)C=C2Oc3c(C(C)=O)c(O)c(C)c(O)c3[C@@]2(C)C1=O [Compound 2, (+)-usnic acid, reference compound] |  | 370 µM | 
3 | comparable to that of AMP | 6 µM | comparable to that of AMP | 5 µM | relatively low solubility | CCC(C)C(=O)c1c(O)cc2oc3c(C(=O)C(C)CC)c(O)cc(O)c3c2c1O (stereo not shown) [Compound 4, 1,1′-(1,3,7,9-tetrahydroxydibenzofuran-2,6-diyl)bis(2-methylbutan-1-one)] |  |  | substantial diminution of the TNP-AMP fluorescence
4 | comparable to that of AMP | 8.1 µM | comparable to that of AMP | 1.5 ± 0.1 µM | relatively low solubility | CC(C)CC(=O)c1c(O)cc2oc3c(C(=O)CC(C)C)c(O)cc(O)c3c2c1O [Compound 3, 1,1′-(1,3,7,9-tetrahydroxydibenzofuran-2,6-diyl)bis(3-methylbutan-1-one)] |  |  | substantial diminution of the TNP-AMP fluorescence
5 |  | 9.7 µM and 9.8 µM |  | 1.3 µM |  | Nc1ncnc2c1ncn2[C@@H]1O[C@H](COP(=O)(O)O)[C@@H](O)[C@H]1O [AMP, reference compound] |  |  | 
